Here are results for 9 compounds from PubChem BioAssay (NCI).

Values joined by “and” are separate entries in the source; they are usually repeats but may differ in a detail not shown here. Equal values may be shown once.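 Values below derive from 48-hour exposures of cells grown in 96-well plates, with endpoints linearly interpolated between the two concentrations bracketing the appropriate inhibition level. GI50 marks 50% less growth. Definition used: TGI = concentration required for complete inhibition of growth.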 A value given as a limit tells only on which side of the number the result lay.

Test systems include 786-0 renal; ACHN renal; COLO 205 colon; EKVX NSCLC; HCT-116 colon; HCT-15 colon; HOP-62 NSCLC; KM12 colon; MALME-3M melanoma; SN12C renal.
What all share (assay): DTP human tumour cell line panel, 48 h

Turning to `O=S(O)CCCSSc1ccccc1`, the TGI was greater than 100 µM with 786-0 renal; greater than 100 µM in the assay with ACHN renal; greater than 100 µM with COLO 205 colon; 88.1 µM with EKVX NSCLC; greater than 100 µM in the assay on HCT-116 colon; greater than 100 µM with HCT-15 colon. Also, the TGI with HOP-62 NSCLC, in the assay on KM12 colon, in the assay on MALME-3M melanoma and in the assay on SN12C renal was greater than 100 µM each time.
On to `NC1=NCCN1CC(=O)O`, for which the GI50 with 786-0 renal, with ACHN renal, in the assay with COLO 205 colon, in the assay with HCT-116 colon, in the assay with HCT-15 colon and in the assay on HOP-62 NSCLC was greater than 10000 µM in each case. Besides, the GI50 in the assay with SN12C renal is greater than 10000 µM. Besides, the total growth inhibition concentration (TGI) in the assay on 786-0 renal, in the assay on ACHN renal, in the assay on COLO 205 colon, in the assay with EKVX NSCLC, in the assay on HCT-116 colon and in the assay on HCT-15 colon was greater than 10000 µM in each case. Moreover, the TGI with HOP-62 NSCLC is greater than 10000 µM; in the assay with KM12 colon it was greater than 10000 µM; with MALME-3M melanoma, greater than 1000 µM; in the assay with SN12C renal, greater than 10000 µM.
Take `CC1=C[P+](Cc2ccccc2)(c2ccccc2)CC1` (stereo not given): the TGI in the assay on 786-0 renal, with ACHN renal, in the assay on COLO 205 colon, in the assay with EKVX NSCLC, in the assay on HCT-116 colon and in the assay on HCT-15 colon was greater than 100 µM in each case. For the same compound, the total growth inhibition concentration (TGI) in the assay on HOP-62 NSCLC, with KM12 colon, in the assay with MALME-3M melanoma and with SN12C renal was greater than 100 µM in each case. Further, the GI50 in the assay on MALME-3M melanoma is 19.9 µM and 76.5 µM and 31.2 µM.
As to `C/C(=C\COc1c2c(cc3c1CCO3)OC1(C=C2)OC(CC/C(C)=C/COc2c3ccoc3cc3oc(=O)ccc23)C(C)(C)O1)CCC(O)C(C)(C)O` (stereo not given), the GI50 in the assay on 786-0 renal was greater than 100 µM; in the assay with ACHN renal it was 15 µM; in the assay with COLO 205 colon, 23.1 µM; with EKVX NSCLC it was 5.93 µM; with HCT-116 colon, 18.4 µM; with HCT-15 colon, 85 µM. Further, the GI50 with HOP-62 NSCLC was greater than 100 µM; in the assay with KM12 colon, 11.7 µM; with MALME-3M melanoma, 68.7 µM; in the assay on SN12C renal it was 89.1 µM. For the same compound, the TGI in the assay with 786-0 renal, in the assay on ACHN renal, in the assay with COLO 205 colon, in the assay on EKVX NSCLC, in the assay with HCT-116 colon and with HCT-15 colon was greater than 100 µM throughout. Further, the TGI in the assay on HOP-62 NSCLC, with KM12 colon, with MALME-3M melanoma and in the assay on SN12C renal was greater than 100 µM throughout.
Regarding `O=C(NCc1ccncc1)C12CC3CC(C1)CC(c1ccc(Cl)cc1)(C3)C2`, the GI50 in the assay on 786-0 renal was 12.6 µM; with ACHN renal, 12.5 µM; in the assay with COLO 205 colon, 12.7 µM; with EKVX NSCLC, 11.6 µM; with HCT-116 colon it was 9.4 µM; in the assay with HCT-15 colon it was 12.1 µM. Besides, the GI50 in the assay on HOP-62 NSCLC was 14 µM; in the assay with KM12 colon, 13.6 µM; with MALME-3M melanoma, 13.3 µM; with SN12C renal, 13.4 µM. Besides, the TGI with 786-0 renal amounted to 25.8 µM; in the assay on ACHN renal, 25 µM; with COLO 205 colon it was 27.1 µM; with EKVX NSCLC, 26.3 µM; in the assay on HCT-116 colon, 22.3 µM; with HCT-15 colon, 25.2 µM. Further, the TGI is 27.2 µM in the assay on HOP-62 NSCLC, 27.8 µM in the assay on KM12 colon, 27.4 µM in the assay on MALME-3M melanoma and 27.3 µM in the assay on SN12C renal.
Turning to `CCC[CH2][Sn]1([CH2]CCC)[O]C(=O)c2ccc(C)cc2[O]1`, the GI50 in the assay on 786-0 renal is 1 µM; in the assay on ACHN renal it was 0.404 µM; with COLO 205 colon, 0.465 µM; in the assay with EKVX NSCLC it was 0.994 µM; in the assay on HCT-116 colon, 0.985 µM; in the assay on HOP-62 NSCLC it was 2.16 µM. Besides, the GI50 in the assay with KM12 colon was 1.06 µM; in the assay with MALME-3M melanoma, 0.327 µM; with SN12C renal, 0.511 µM. The TGI turned out to be 2.17 µM in the assay with 786-0 renal; 1.42 µM in the assay with ACHN renal; 1.61 µM in the assay with COLO 205 colon; 2.23 µM in the assay on EKVX NSCLC; 2.18 µM in the assay with HCT-116 colon; 3.88 µM in the assay with HOP-62 NSCLC. For the same compound, the TGI in the assay with KM12 colon was found to be 2.36 µM; in the assay with MALME-3M melanoma it was 1.44 µM; in the assay on SN12C renal, 1.77 µM.
Take `COc1cc(-c2ncn(/C=C\C(=O)OC(C)C)n2)cc(C(F)(F)F)c1`: the GI50 in the assay on 786-0 renal was 0.101 µM and 0.098 µM; in the assay on ACHN renal, 0.0605 µM and 0.0657 µM; in the assay on COLO 205 colon, 0.0432 µM and 0.0437 µM; in the assay on EKVX NSCLC it was 2.6 µM; in the assay with HCT-116 colon it was 0.0528 µM and 0.0688 µM; with HCT-15 colon it was 0.0715 µM and 0.0543 µM. In addition, the GI50 in the assay with HOP-62 NSCLC is 0.295 µM and 0.262 µM; with KM12 colon it was 0.368 µM and 0.309 µM; in the assay with MALME-3M melanoma, 0.149 µM and 0.147 µM; in the assay with SN12C renal it was 0.28 µM and 0.314 µM. Also, the TGI was 2.61 µM and 3.25 µM in the assay with 786-0 renal; 12.9 µM and 13 µM in the assay on ACHN renal; 1.28 µM and 1.46 µM with COLO 205 colon; 19.5 µM with EKVX NSCLC; 1.58 µM and 11.3 µM in the assay on HCT-116 colon; 7.93 µM and 6.39 µM in the assay on HCT-15 colon. Also, the TGI was 3.46 µM and 3.94 µM in the assay on HOP-62 NSCLC; 12.2 µM and 4.32 µM in the assay with KM12 colon; 12.9 µM and 15.3 µM with MALME-3M melanoma; 11.7 µM and 11 µM in the assay with SN12C renal.
On to `COc1ccc(OC)c(-c2cc(=O)c3c(OC)c(OC)c(OC)c(OC)c3o2)c1`, for which the concentration for total growth inhibition (TGI) was 92.2 µM in the assay on 786-0 renal; 71.3 µM in the assay with ACHN renal; 31.6 µM in the assay on COLO 205 colon; greater than 100 µM with EKVX NSCLC; greater than 100 µM with HCT-116 colon; 77.5 µM in the assay on HCT-15 colon. Also, the TGI in the assay on HOP-62 NSCLC was 79.5 µM; with MALME-3M melanoma, greater than 100 µM; in the assay with SN12C renal it was greater than 100 µM.
For the compound `COc1cc2c(cc1OC)C(=O)Cc1ccc(OC)c(OC)c1CN(C)CC2`, the TGI with 786-0 renal, with ACHN renal, in the assay with COLO 205 colon, with EKVX NSCLC, in the assay on HCT-116 colon and in the assay with HCT-15 colon was greater than 100 µM throughout. Also, the TGI with HOP-62 NSCLC, with KM12 colon, with MALME-3M melanoma and in the assay with SN12C renal was greater than 100 µM throughout.

As a reminder, the TGI is the concentration at which net growth stops. A lower TGI goes with more potent growth arrest. The term GI50 denotes the concentration at which growth is held to half of that of the control.
